Measurements reported in ChEMBL document CHEMBL4732245, “Synthesis and biological evaluation of novel 4,7-disubstituted coumarins as selective tumor-associated carbonic anhydrase IX and XII inhibitors” (Bioorg Med Chem Lett, 2021).

Legend:
[1] = target: Carbonic anhydrase 1 (Homo sapiens, UniProt P00915); assay: Inhibition of recombinant human carbonic anhydrase 1 pre-incubated for 10 mins by stopped flow CO2 hydrase assay
[2] = target: Carbonic anhydrase 2 (Homo sapiens, UniProt P00918); assay: Inhibition of recombinant human carbonic anhydrase 2 pre-incubated for 10 mins by stopped flow CO2 hydrase assay
[3] = target: T1, Carbonic anhydrase 9 (Homo sapiens, UniProt Q16790); assay: Inhibition of recombinant human carbonic anhydrase 9 preincubated for 10 mins by stopped flow CO2 hydrase assay
[4] = target: T1, Carbonic anhydrase 9; assay: Inhibition of recombinant human carbonic anhydrase 9 preincubated for 6 hrs at 24 degC by stopped flow CO2 hydrase assay
[5] = target: Carbonic anhydrase 12 (Homo sapiens, UniProt O43570); assay: Inhibition of recombinant human carbonic anhydrase 12 preincubated for 6 hrs at 24 degC by stopped flow CO2 hydrase assay
Carbonic anhydrase 12, sequence (O43570 whole entry): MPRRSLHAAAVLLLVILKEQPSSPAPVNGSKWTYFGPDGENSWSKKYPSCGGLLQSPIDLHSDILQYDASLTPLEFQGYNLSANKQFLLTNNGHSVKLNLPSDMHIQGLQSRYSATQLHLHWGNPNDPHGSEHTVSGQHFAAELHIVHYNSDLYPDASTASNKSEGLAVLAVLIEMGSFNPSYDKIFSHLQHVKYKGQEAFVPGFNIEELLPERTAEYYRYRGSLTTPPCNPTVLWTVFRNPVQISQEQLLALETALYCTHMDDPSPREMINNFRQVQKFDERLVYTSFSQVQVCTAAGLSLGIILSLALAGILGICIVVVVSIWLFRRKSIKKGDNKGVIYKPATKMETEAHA

Carbonic anhydrase 1, sequence (P00915 whole entry): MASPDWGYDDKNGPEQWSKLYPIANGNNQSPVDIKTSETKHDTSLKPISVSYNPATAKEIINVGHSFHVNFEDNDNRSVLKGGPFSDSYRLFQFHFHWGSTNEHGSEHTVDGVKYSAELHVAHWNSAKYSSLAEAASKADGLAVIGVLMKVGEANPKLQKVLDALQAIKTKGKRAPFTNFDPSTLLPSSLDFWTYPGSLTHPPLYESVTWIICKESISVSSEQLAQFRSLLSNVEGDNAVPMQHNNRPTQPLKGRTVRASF

Compound	Ki [1]	Ki [2]	Ki [3]	Ki [4]	Ki [5]
COc1ccc(N2CCN(Cc3cc(=O)oc4cc(OCc5cc(C)cc(C)c5)ccc34)CC2)cc1	> 100 µM	> 100 µM	4.55 µM	–	–
COc1ccc(N2CCN(Cc3cc(=O)oc4cc(OCc5ccccc5F)ccc34)CC2)cc1	> 100 µM	> 100 µM	3.85 µM	–	–
COc1cccc(COc2ccc3c(CN4CCN(Cc5ccccc5)CC4)cc(=O)oc3c2)c1	> 100 µM	> 100 µM	4.9 µM	–	–
COc1ccc(N2CCN(Cc3cc(=O)oc4cc(OCc5ccc([N+](=O)[O-])cc5)ccc34)CC2)cc1	> 100 µM	> 100 µM	2.66 µM	–	–
O=c1cc(CN2CCN(Cc3ccccc3)CC2)c2ccc(OCc3cccc(Br)c3)cc2o1	> 100 µM	> 100 µM	0.85 µM	–	–
O=c1cc(CN2CCN(Cc3ccccc3)CC2)c2ccc(OCc3ccccc3)cc2o1	> 100 µM	> 100 µM	4.9 µM	–	–
Cc1cc(C)cc(COc2ccc3c(CN4CCN(Cc5ccccc5)CC4)cc(=O)oc3c2)c1	> 100 µM	> 100 µM	0.78 µM	–	–
N#Cc1ccc(Cn2cc(COc3ccc4c(CCl)cc(=O)oc4c3)nn2)cc1	–	–	–	0.0327 µM	0.624 µM
O=c1cc(CN2CCN(Cc3ccccc3)CC2)c2ccc(OCc3ccccc3[N+](=O)[O-])cc2o1	> 100 µM	> 100 µM	0.93 µM	–	–
O=c1cc(CN2CCN(Cc3ccccc3)CC2)c2ccc(OCc3ccc(Br)cc3)cc2o1	> 100 µM	> 100 µM	–	–	–

Continued, values first:

Ki [1]	Ki [2]	Ki [3]	Ki [4]	Ki [5]	Compound
> 100 µM	> 100 µM	3.47 µM	–	–	COc1ccc(N2CCN(Cc3cc(=O)oc4cc(OCc5cccc(Br)c5)ccc34)CC2)cc1
> 100 µM	> 100 µM	0.91 µM	–	–	O=c1cc(CN2CCN(Cc3ccccc3)CC2)c2ccc(OCc3ccccc3F)cc2o1
> 100 µM	> 100 µM	4.43 µM	–	–	O=c1cc(CN2CCN(Cc3ccccc3)CC2)c2ccc(OCc3cc(F)ccc3F)cc2o1
> 100 µM	> 100 µM	2.55 µM	–	–	COc1ccc(N2CCN(Cc3cc(=O)oc4cc(OCc5cccc(OC)c5)ccc34)CC2)cc1
> 100 µM	> 100 µM	3.16 µM	–	–	O=c1cc(CN2CCN(Cc3ccccc3)CC2)c2ccc(OCc3ccc([N+](=O)[O-])cc3)cc2o1
> 100 µM	> 100 µM	4.6 µM	–	–	O=c1cc(CN2CCN(Cc3ccccc3)CC2)c2ccc(OCc3cccc(Cl)c3)cc2o1
> 100 µM	> 100 µM	0.89 µM	–	–	COc1ccc(N2CCN(Cc3cc(=O)oc4cc(OCc5ccc(Br)cc5)ccc34)CC2)cc1
> 100 µM	> 100 µM	5.39 µM	–	–	COc1ccc(N2CCN(Cc3cc(=O)oc4cc(OCc5ccccc5[N+](=O)[O-])ccc34)CC2)cc1
> 100 µM	> 100 µM	7.29 µM	–	–	COc1ccc(N2CCN(Cc3cc(=O)oc4cc(OCc5cccc(Cl)c5)ccc34)CC2)cc1
> 100 µM	> 100 µM	5.52 µM	–	–	COc1ccc(N2CCN(Cc3cc(=O)oc4cc(OCc5ccccc5)ccc34)CC2)cc1
–	–	2.34 µM	–	–	COc1ccc(CSc2nnc(COc3ccc4c(C)cc(=O)oc4c3)o2)cc1
